Data taken from patent US12458693B2, “Methods of treating iron overload with a BMP inhibitor” (Keros Therapeutics, Inc., priority 2020, dated 2025).
Entries after “also recorded” stand apart in the source; their conditions may differ.

How the values were obtained:
[1] = test system: reticulocyte hemoglobin content; test: Reticulocyte hemoglobin content in healthy volunteers (MAD); assay type: in vivo, human
Method: (§1) Participants in Part 2, Cohorts 1 through 3, received a daily oral dose of the compound of Formula I-11 (50, 100, or 200 mg liquid formulation respectively) or placebo for 7 days. A daily oral dose of the compound of Formula I-11 or placebo in participants in Part 2, Cohort 4 (350 mg liquid formulation) was planned for 14 days but was discontinued early in all subjects, either by the Investigator because of AEs, or by the Sponsor. A decision was made by the Sponsor to discontinue dosing of the entire cohort based on the frequency of AEs and laboratory abnormalities after Day 9. In Cohort 4, participants on the compound of Formula I-11 received daily oral dosing of 350 mg for up to 7 days; one placebo participant received daily oral dosing for 9 days. Samples were collected for determination of pharmacodynamic parameters at pre-dose daily and to 24 hours post dose (day 8) while on drug. Daily trough PK samples were collected for the determination of steady-state from Day 2 to Day 12 or 13. Participants returned to the site on Day 30 for an end-of-study visit. Safety was evaluated by a Safety Review Committee prior to escalation to the next dose level cohort.
(§2) Pharmacodynamic endpoints: Protocol-specified endpoints were assessed at baseline and regularly throughout the study period. These assessments included measurements of serum iron, transferrin saturation (calculated as serum iron/total iron-binding capacity), serum ferritin, serum hepcidin, and reticulocyte hemoglobin content. Measurements of all pharmacodynamic end points were made using standard clinical laboratory tests. Hepcidin analysis was performed using an ELISA kit from Intrinsic LifeSciences (Intrinsic Hepcidin IDx™ ELISA kit).

transferrin saturation = test: Transferrin saturation (TSAT) in healthy volunteers; assay type: in vivo, human
Method: (§3) Participants in Part 1 received a single oral dose of the compound of Formula I-11 or placebo on Day 1 and serial PK samples were collected. Baseline assessments were performed on day −1 prior to dosing. Samples were collected for determination of pharmacodynamic parameters at pre-dose daily and up to 24 hours post dose (day 2) after a single oral dose of the compound of Formula I-11. Participants remained at the study site for observation for 24 hours post-dose through the PK sample collection on Day 2. Participants returned to the site for the 48, 72, and 120-hour post-dose sample collection on Days 3, 4, and 6. Safety was evaluated by a Safety Review Committee prior to escalation to the next dose level cohort.
as §1, §2

[2] = Phase 1 SAD/MAD study in healthy volunteers: safety and tolerability; assay type: in vivo, human; conditions: for dose level up to which well tolerated: healthy participants
Source text: A total of 131 healthy, males aged 18 to 60 years and post-menopausal females aged 45 to 60 years, participated in this study.
(§4) The primary objectives of this study were to a) evaluate safety and tolerability of escalating doses of the compound of Formula I-11 administered as single and multiple oral doses in healthy male volunteers and healthy postmenopausal female volunteers and b) evaluate the PK parameters following escalating doses of the compound of Formula I-11 administered as single and multiple oral doses. The secondary objective of this study was to evaluate the pharmacodynamic (PD) parameters following escalating doses of the compound of Formula I-11 administered as single and multiple oral doses. This study was conducted in two parts.
Part 1 included 80 participants (10 cohorts of 8 participants each). Male and female participants who met the eligibility criteria were randomly assigned, in a ratio of 3:1 to receive the compound of Formula I-11 or matching placebo, N=6 and 2 per dose cohort, respectively. Participant enrollment included […] males and 12.5% females (postmenopausal). The IMP formulation used in Cohorts 1 through 6 was an oral capsule (doses of 1, 3, 10, 30, 100, or 300 mg capsule formulation). An oral liquid formulation was evaluated in Cohorts 7 through 10 (doses of 30, 100, 300 or 450 mg liquid formulation).
as §3
Part 2, Cohorts 1 through 4, included 41 participants (4 cohorts of 10 participants each and 1 additional placebo participant in Cohort 1). Male and female participants who met the eligibility criteria were randomly assigned at a ratio of 4:1 to receive either the compound of Formula I-11 oral liquid formulation or matching placebo, N=8 and 2 per dose cohort respectively. Forty (97.6%) males and 1 (2.4%) female (placebo) participant were enrolled.
as §1
Part 2, MAD Cohort 5 (C5) participants received either the compound of Formula I-11, 100 mg (n=8) or placebo (n=2) on Days 1, 2, 3, 4, 5, 6, 7. The last dose was administered on the morning of Day 7. […]

serum hepcidin = test: Serum hepcidin in healthy volunteers (Intrinsic Hepcidin IDx ELISA); assay type: in vivo, human
Method: as §1, with “Daily trough PK samples were collected for the determination of steady-state from Day 2 to Day 12 or 13. Participants returned to the site on Day 30 for an end-of-study visit.” left out, “cohort. […]” for “cohort.”
(§5) Pharmacodynamic endpoints: Protocol-specified endpoints were assessed at baseline and regularly throughout the study period. These assessments included measurements of serum iron, transferrin saturation (calculated as serum iron/total iron-binding capacity), serum ferritin, serum hepcidin, and reticulocyte hemoglobin content. […]

lymphocytes = test: Lymphocyte counts in healthy volunteers (MAD); assay type: in vivo, human
Method: as §1

serum iron [3] = test: Serum iron in healthy volunteers; assay type: in vivo, human
Method: as §3, §1, §2

[4] = Phase 1 SAD/MAD study in healthy volunteers: pharmacokinetics; assay type: in vivo, human
Source text: as §4
as §3, with “Participants remained at the study site for observation for 24 hours post-dose through the PK sample collection on Day 2. Participants returned to the site for the 48, 72, and 120-hour post-dose sample collection on Days 3, 4, and 6.” left out
Participants in Part 2, Cohorts 1 through 3, received a daily oral dose of the compound of Formula I-11 (50, 100, or 200 mg liquid formulation respectively) or placebo for 7 days. […] Safety was evaluated by a Safety Review Committee prior to escalation to the next dose level cohort. […]

serum ferritin = test: Serum ferritin in healthy volunteers; assay type: in vivo, human
Method: as §3
Participants in Part 2, Cohorts 1 through 3, received a daily oral dose of the compound of Formula I-11 (50, 100, or 200 mg liquid formulation respectively) or placebo for 7 days. […] Safety was evaluated by a Safety Review Committee prior to escalation to the next dose level cohort.
as §5

hepcidin 25 = test: Time course of serum hepcidin in wild-type mice (ELISA); assay type: in vivo, C57BI/6 mice; conditions: 5 mg/kg gavage once daily, third treatment day
Method: (§6) To assess the effect of the compound of Formula I-42, a small molecule selective ALK2 kinase inhibitor, on hepcidin and serum iron, a time course experiment was conducted. For time course analysis, female C57BI/6 mice were gavaged once daily with either the compound of Formula I-42 (5 mg/kg), or vehicle. On the third treatment day, ten mice from each dosing group were euthanized 4, 6, 8, 12, 16, or 24 hours post-dosing. Blood was sampled and serum extracted. The mature form of hepcidin (hepcidin 25) was measured in serum with the use of a commercial ELISA (Intrinsic LifeSciences, CA) as per the manufacturer's instructions. Serum iron levels were determined with the use of a commercial assay that was based on the standard bathophenanthroline disulfonate method (BioAssay Systems, CA) as per the manufacturer's instructions. […] Data are shown as the average±SEM.

liver iron content = test: Liver iron content in iron dextran mouse model of iron overload, first assay (30% HCl 10% TCA extraction); assay type: in vivo, CD1 mice; conditions: 5 mg/kg QD, by 63 hours of dosing, iron overloaded mice; ****P<0.0001
Method: (§7) After 20 days of iron loading, a subgroup of mice was sacrificed to confirm iron overload. The remaining iron loaded mice were dosed QD with either the compound of Formula I-42, a small molecule selective ALK2 kinase inhibitor (5 mg/kg) or vehicle. […] Mice were sacrificed 16 hours post the 1st dose (16 hr) and […] post the 3rd dose (63 hr) of the compound of Formula I-42 and livers dissected and weighed.
(§8) Two assays were performed to evaluate tissue iron. In the first assay, non-heme tissue iron was extracted via acid hydrolysis and iron levels determined using the bathophenanthroline disulfonate method. Briefly, 50 mg sections of mouse liver were flash frozen on liquid nitrogen at study termination. Samples were processed by addition of a 30% HCl 10% Trichloroacetic acid mixture and allowed to extract for 20 hours at 65° C. Following extraction, samples were cooled to room temperature and centrifuged briefly. Samples were transferred to a 96-well plate at the appropriate dilution and a chromogen reagent mixture containing bathophenanthrolinedisulfonic acid, thioglycolic acid, and saturated sodium acetate was added. Samples and standards were then read via absorbance at 535 nm on a SpectraMax plate reader immediately. Sample concentrations were determined by linear regression analysis in GraphPad Prism. […] Data are shown as average±SEM. […]

serum iron [5] = test: Time course of serum iron in wild-type mice (bathophenanthroline disulfonate method); assay type: in vivo, C57BI/6 mice; conditions: 5 mg/kg gavage once daily
Method: as §6

[6] = test system: non-dextran-bound iron content in livers; test: Non-dextran-bound liver iron in iron dextran mouse model of iron overload, second assay (10% HCl 10% TCA extraction); assay type: in vivo, CD1 mice; conditions: 5 mg/kg QD, iron overloaded mice; **P<0.01, ****P<0.0001
Method: as §7
as §8, with “In” for “Two assays were performed to evaluate tissue iron. In”, “second” for “first”, “10%” for “30%”, “containing of” for “containing”, “standards and blanks” for “standards”, “after a brief incubation.” for “immediately.”

[7] = Day 4, MAD first dose level (50 mg daily)
[8] = Day 4, MAD fourth dose level (350 mg daily)
[9] = Day 4, MAD second dose level (100 mg daily)
[10] = Day 4, MAD third dose level (200 mg daily)

COc1cc2c(-c3cnn4cc(N5CCC(N6CCN(C)CC6)CC5)cnc34)ccnc2cc1F [Formula I-11]
peak increase in reticulocyte hemoglobin content ([1]; MAD): 7 days
start of increase in reticulocyte hemoglobin content ([1]; MAD cohorts 1-4, post-dosing): 4 days
effect on reticulocyte hemoglobin content ([1]; repeated administration): increases over baseline in the hemoglobin content of reticulocytes
transferrin saturation mean percent change from baseline (transferrin saturation; [7]): 1.6%
transferrin saturation mean percent change from baseline (transferrin saturation; [8]): 30.1%
transferrin saturation mean percent change from baseline (transferrin saturation; [9]): 1.5%
transferrin saturation mean percent change from baseline (transferrin saturation; [10]): 7.5%
observed PD response (transferrin saturation) (transferrin saturation; once-daily doses of 50 mg): not substantially different from placebo
observed PD response (transferrin saturation) (transferrin saturation; single dose of 30 mg, liquid formulation): not substantially different from placebo
effect on transferrin saturation (transferrin saturation; single or repeated doses of 100 mg or above): sustained, dose-related increases in transferrin saturation
dose level up to which well tolerated ([2]; after 7 daily oral doses): up to 200 mg
AEs reported in >2 treated subjects and higher than placebo ([2]; human, in vivo): headache, nausea, vomiting, diarrhea, gastroenteritis, chills, pyrexia, myalgia, decreased appetite, lymphopenia, neutropenia, abdominal discomfort, abdominal pain (upper), dizziness, fatigue, rhinorrhea, tonsillitis, and liver enzyme increases
AEs that led to study drug discontinuation in three or more participants ([2]; human, in vivo): lymphopenia and chills
participants who discontinued the study due to AEs ([2]; human, in vivo): 10 of 40 (25%)
serious adverse events ([2]; human, in vivo): no serious adverse events
severity of the majority of AEs ([2]; human, in vivo): mild or moderate in severity
subjects who discontinued the study due to AEs ([2]; human, in vivo): none
subjects with increases in ALT>2×ULN ([2]; human, in vivo): 3
dose level up to which well tolerated ([2]; single oral dose): up to 450 mg
earliest decrease in hepcidin after first dose (serum hepcidin; MAD Cohort 5, 100 mg): 4 h
effect on serum hepcidin versus placebo (serum hepcidin; once-daily oral over 7 days, similar at 50 mg, 100 mg and 200 mg): robust decreases in baseline hepcidin
reversibility of lymphopenia (lymphocytes; after the treatment period ended): reversible
development of lymphopenia (lymphocyte counts<1.0×10^9 cells/L) (lymphocytes; repeated oral administration, onward): ≥ 6 day
start of decreases in lymphocyte counts (lymphocytes; repeated oral administration, post treatment, higher doses): 5 days
serum iron mean change from baseline (serum iron [3]; [7]): 1.48 μM/L
serum iron mean change from baseline (serum iron [3]; [8]): 17.71 μM/L
serum iron mean change from baseline (serum iron [3]; [9]): 0.59 μM/L
serum iron mean change from baseline (serum iron [3]; [10]): 5.11 μM/L
serum iron concentrations by Day 7 (serum iron [3]; MAD, some participants exhibiting large PD effects on Day 4): returned to baseline or below
time of peak serum iron concentrations (serum iron [3]; multiple dose regimen, day of treatment): Day 3 or 4
effect on serum iron (serum iron [3]; single (SAD) or once-daily (MAD) oral administration): rapid, robust, and sustained dose-related increases in serum iron
time of peak serum iron effect (serum iron [3]; single dose, Day 2, post-dose): 24 h
half-life ([4]; both sexes, human, in vivo, oral, approximately): 10 to 15 h
mean AUC and Cmax versus dose ([4]; multiple doses from 50-200 mg): increased linearly with greater than dose-proportional increases
effect on serum ferritin (serum ferritin; MAD cohort participants): decreases were observed in serum ferritin
effect on serum ferritin, single versus multiple doses (serum ferritin; SAD versus MAD): observed only after multiple doses

COc1cc2c(-c3cnn4cc(N5CC(N6CCN(C)CC6)C5)cnc34)ccnc2cc1F [Formula I-42]
onset of hepcidin reduction (hepcidin 25): as soon as four hours post-administration
hepcidin reduction sustained through (hepcidin 25; post-administration): 12 h
effect on circulating hepcidin (hepcidin 25; wild-type mice): reduced circulating hepcidin levels
effect on liver iron content (liver iron content): reduce liver iron content; also recorded: significantly reduced liver iron content
peak serum iron (serum iron [5]; at 16 hours, average): 716.31 µg/dL
onset of serum iron increase (serum iron [5]; third treatment day): eight hours post-administration
time of peak serum iron (serum iron [5]; third treatment day, post-administration): 16 h
effect on serum iron (serum iron [5]; third treatment day, wild-type mice): increased serum iron
effect on non-dextran-bound iron content in livers [6]: significantly reduced non-dextran-bound iron content
